Results: the supplement of paper PMC4862054

What was measured:
[1] = system: MDA-MB-453; conditions: 72 h
How it was run: (§1)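 After 72 h on 384-well plates pre-loaded with compound in 5 µl medium, breast cancer cell lines seeded in 20 µl were assayed for viability with 2.5 µl CellTiter-Blue at 37 °C for 2 h, read at 560/590 nm. Each plate was quality-checked by Z'-factor and normalised to vehicle and a positive kill control. EC50 comes from the fitted percent-inhibition dose-response curve, censored at the top concentration, and rows scoring zero for drug sensitivity were left out.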

[2] = system: DU-4475; conditions: 72 h
How it was run: as §1

[3] = system: CAL-85-1; conditions: 72 h
How it was run: as §1

[4] = system: HDQ-P1; conditions: 72 h
How it was run: as §1

[5] = system: Hs578T; conditions: 72 h
How it was run: as §1

[6] = system: MDA-MB-468; conditions: 72 h
How it was run: as §1

[7] = system: HCC1599; conditions: 72 h
How it was run: as §1

[8] = system: BT-474; conditions: 72 h
How it was run: as §1

[9] = system: MFM-223; conditions: 72 h
How it was run: as §1

[10] = system: HCC1143; conditions: 72 h
How it was run: as §1

[11] = system: MDA-MB-231; conditions: 72 h
How it was run: as §1

[12] = system: CAL-148; conditions: 72 h
How it was run: (§2)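 Per-plate normalisation used 0.1 % DMSO and a positive kill control. Breast cancer cell lines (20 µl suspension) were seeded into 384-well plates containing compound at 5 concentrations in 10-fold steps across a compound-specific 10,000-fold range, incubated for 72 h, and read first for CellTox Green fluorescence (485/520 nm), then for CellTiter-Glo luminescence. EC50 was fitted from the dose-response curves and censored at the top concentration.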

[13] = system: Hs578T; conditions: 72 h; remark: listed apart in the source
How it was run: as §2

[14] = system: MCF-10A; conditions: 72 h
How it was run: as §2

[15] = system: BT-549; conditions: 72 h
How it was run: as §2

[16] = system: MDA-MB-453; conditions: 72 h; remark: listed apart in the source
How it was run: as §2

[17] = system: HCC1937; conditions: 72 h
How it was run: as §2

[18] = system: DU-4475; conditions: 72 h; remark: listed apart in the source
How it was run: as §2

[19] = system: MDA-MB-436; conditions: 72 h
How it was run: as §2

[20] = system: CAL-85-1; conditions: 72 h; remark: listed apart in the source
How it was run: as §2

[21] = system: BT-474; conditions: 72 h; remark: listed apart in the source
How it was run: as §2

[22] = system: SK-BR-3; conditions: 72 h
How it was run: as §2

[23] = system: HDQ-P1; conditions: 72 h; remark: listed apart in the source
How it was run: as §2

[24] = system: CAL-51; conditions: 72 h
How it was run: as §2

[25] = system: MFM-223; conditions: 72 h; remark: listed apart in the source
How it was run: as §2

[26] = system: HCC1143; conditions: 72 h; remark: listed apart in the source
How it was run: as §2

[27] = system: MDA-MB-231; conditions: 72 h; remark: listed apart in the source
How it was run: as §2

[28] = system: CAL-85-1; conditions: 72 h; remark: listed apart in the source
Protocol: (§3)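 Drug sensitivity and resistance testing (DSRT) of breast cancer cell lines in 384-well plates, 5 concentrations in 10-fold dilutions over a compound-specific 10,000-fold range. After 72 h, cytotoxicity was read by CellTox Green fluorescence and viability by CellTiter-Glo luminescence (multiplexed), normalised to DMSO and benzethonium chloride controls. EC50 is the inflection point of the fitted dose-response curve (bottom asymptote free, so it can be relative for partial curves) and is censored at the highest tested concentration. Rows with DSS 0 (no meaningful response) were excluded.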

[29] = system: MDA-MB-453; assay: normalised viability (% of control), CellTiter-Blue; higher = more viable cells (about 100 = DMSO control); conditions: incubation time: 72 h
Protocol: (§4)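 DSRT, CellTiter-Blue viability, 72 h incubation. Signal is normalised to DMSO and benzethonium chloride controls. Value is the normalised response at dose 9.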

[30] = system: DU-4475; assay: as above; conditions: incubation time: 72 h
Protocol: as §4

[31] = system: CAL-85-1; assay: as above; conditions: incubation time: 72 h
Protocol: as §4

[32] = system: HDQ-P1; assay: as above; conditions: incubation time: 72 h
Protocol: as §4

[33] = system: Hs578T; conditions: 72 h; remark: listed apart in the source
Protocol: as §3

COc1cccc2cc(-c3nc([C@H]4CC[C@H](C(=O)O)CC4)n4ncnc(N)c34)[nH]c12 [OSI-027]
EC50, CellTiter-Blue viability [1]: 0.46 µM | EC50, CellTiter-Blue viability [2]: 4.63 µM | EC50, CellTiter-Blue viability [3]: 1.18 µM | EC50, CellTiter-Blue viability [4]: 0.255 µM | EC50, CellTiter-Blue viability [5]: 1.28 µM | EC50, CellTiter-Blue viability [6]: 1.96 µM | EC50, CellTiter-Blue viability [7]: 1.21 µM | EC50, CellTiter-Blue viability [8]: 0.74 µM | EC50, CellTiter-Blue viability [9]: 0.275 µM | EC50, CellTiter-Blue viability [10]: 1.15 µM | EC50, CellTiter-Blue viability [11]: 1.67 µM | EC50, CellTiter-Glo [12]: 7.16 µM | EC50, CellTiter-Glo [13]: 6.72 µM | EC50, CellTiter-Glo [14]: 4.81 µM | EC50, CellTiter-Glo [15]: 2.59 µM | EC50, CellTiter-Glo [16]: 2.92 µM | EC50, CellTiter-Glo [17]: 8.71 µM | EC50, CellTiter-Glo [18]: 1.48 µM | EC50, CellTiter-Glo [19]: 8.29 µM | EC50, CellTiter-Glo [20]: 3.8 µM | EC50, CellTiter-Glo [21]: 2.92 µM | EC50, CellTiter-Glo [22]: 0.594 µM | EC50, CellTiter-Glo [23]: 0.938 µM | EC50, CellTiter-Glo [24]: 2.22 µM | EC50, CellTiter-Glo [25]: 3.17 µM | EC50, CellTiter-Glo [26]: 1.88 µM | EC50, CellTiter-Glo [27]: 8.21 µM | EC50, CellTox Green [28]: > 10 µM

Cc1c2oc3c(C)ccc(C(=O)N[C@@H]4C(=O)N[C@H](C(C)C)C(=O)N5CCC[C@H]5C(=O)N(C)CC(=O)N(C)[C@@H](C(C)C)C(=O)O[C@@H]4C)c3nc-2c(C(=O)N[C@@H]2C(=O)N[C@H](C(C)C)C(=O)N3CCC[C@H]3C(=O)N(C)CC(=O)N(C)[C@@H](C(C)C)C(=O)O[C@@H]2C)c(N)c1=O [Dactinomycin] (1000 nM)
normalised viability [29]: 5.82% | normalised viability [30]: -0.64% | normalised viability [31]: 2.21% | normalised viability [32]: 16.8%

Nc1nc(Cl)nc2c1ncn2[C@H]1C[C@H](O)[C@@H](CO)O1 [Cladribine] (1000 nM)
normalised viability [29]: 73.7% | normalised viability [30]: 40.3% | normalised viability [31]: 67.8% | normalised viability [32]: 104%

Cc1ccc(F)c(NC(=O)Nc2ccc(-c3cccc4[nH]nc(N)c34)cc2)c1 [Linifanib] (1000 nM)
normalised viability [29]: 111% | normalised viability [30]: 99.5% | normalised viability [31]: 96.8% | normalised viability [32]: 120%

C=CCNC1=C2C[C@@H](C)C[C@H](OC)[C@H](O)[C@@H](C)/C=C(\C)[C@H](OC(N)=O)[C@@H](OC)/C=C\C=C(/C)C(=O)NC(=CC1=O)C2=O [Tanespimycin] (10000 nM)
normalised viability [29]: 3.61% | normalised viability [30]: -0.27% | normalised viability [31]: 21.8% | normalised viability [32]: 24.8%

C=CC[C@@H]1/C=C(\C)C[C@H](C)C[C@H](OC)[C@H]2O[C@@](O)(C(=O)C(=O)N3CCCC[C@H]3C(=O)O[C@H](/C(C)=C/[C@@H]3CC[C@@H](O)[C@H](OC)C3)[C@H](C)[C@@H](O)CC1=O)[C@H](C)C[C@@H]2OC [Tacrolimus]
EC50, CellTiter-Glo [21]: > 10 µM

CC[C@]1(O)C[C@@H]2CN(CCc3c([nH]c4ccccc34)[C@@](C(=O)OC)(c3cc4c(cc3OC)N(C)[C@H]3[C@@](O)(C(=O)OC)[C@H](OC(C)=O)[C@]5(CC)C=CCN6CC[C@]43[C@@H]65)C2)C1 [Vinblastine] (1000 nM)
normalised viability [29]: 36.3% | normalised viability [30]: 7.08% | normalised viability [31]: 44.6% | normalised viability [32]: 39.6%

Clc1ccc(C(c2ccccc2Cl)C(Cl)Cl)cc1 (configuration not stated) [Mitotane] (10000 nM)
normalised viability [29]: 89.7% | normalised viability [30]: 97.4% | normalised viability [31]: 89.7% | normalised viability [32]: 109%

CN1CCC(COc2cnc(-c3cccc(Cn4nc(-c5cccc(C#N)c5)ccc4=O)c3)nc2)CC1
EC50, CellTiter-Blue viability [1]: 3.64 µM | EC50, CellTiter-Blue viability [2]: 5.89 µM | EC50, CellTiter-Blue viability [3]: 5.15 µM | EC50, CellTiter-Blue viability [4]: 4.97 µM | EC50, CellTiter-Blue viability [6]: 3.04 µM | EC50, CellTiter-Blue viability [8]: 4.45 µM | EC50, CellTiter-Blue viability [9]: 6.27 µM | EC50, CellTiter-Blue viability [11]: 2.06 µM

CS(=O)(=O)c1ccc(C(=O)Nc2ccc(Cl)c(-c3ccccn3)c2)c(Cl)c1 [Vismodegib]
EC50, CellTox Green [33]: > 10 µM
